Assay results reported in patent publication US20260076372A1, “SPRAYABLE ANTIFUNGAL COMPOSITION FOR USE IN THE FIELD OF AGRICULTURE, AND ASSOCIATED METHOD AND USE” (GAIAGO, priority 2022, published 2026).
In brackets after ≈: the same amount, converted by molar mass. Several values for one entry are separate records, joined by “and”; a condition that tells them apart may be missing. Equal values may be shown once.

Experiments:
[1] = system: Septoria tritici (Zymoseptoria tritici); test: in vitro 96-well micro-titration test on Septoria tritici / Zymoseptoria tritici; type: cell-based; conditions: for EC50: Zymoseptoria tritici, S. tritici, Table 12, read-out: EC50 (μg/ml or ppm)
Fusarium graminearum = test: microbe, parasite or virus in culture; type: cell-based; conditions: for EC95 (μg/ml or ppm) / EC50: Fusarium graminearum; for EC95 (μg/ml or ppm): Table 9; for EC50: read-out: EC50 (μg/ml or ppm)
Alternaria solani = test: in vitro 96-well micro-titration test on Alternaria solani spores; type: cell-based
Pythium ultimum = test: in vitro test on P. ultimum; conditions: for EC50: Globisporangium ultimum, read-out: EC50 (μg/ml or ppm); for EC95 (μg/ml or ppm): P. ultimum, Table 14
Method: The evaluations were performed with a 96-well micro-titration test to evaluate the in vitro fungicidal activity of each solution.
Three repetitions (wells) were carried out. The value of the concentration making it possible to inhibit the growth of each pathogen (EC50) to 50% was determined using the optical density measurement.

Plasmopara viticola = test: in vitro antifungal action of single ingredients on Plasmopara viticola; type: cell-based
Source text: In Vitro Results Showing the Syngergistic Action of Yucca Juice with the Other Compounds of the Composition According to the Invention on A. solani, Z. tritici, and Plasmopara viticola,
The following tables show in vitro the synergistic antifungal action between yucca juice and the other compounds of the composition of the invention on various pathogens. The concentrations given are as a mass %. The solutions tested as aqueous solutions.
Mo denotes sodium molybdate, Bo denotes boron ethanolamine.

## Oc1ccc(/C=C/c2cc(O)cc(O)c2)cc1 [resveratrol, 5-[(E)-2-(4-hydroxyphenyl)-ethenyl]benzene-1,3-diol]
[1]; 0.0064 μg/ml or ppm
  % inhibition of pathogen growth (S. tritici): 0.00%
[1]; 0.032 μg/ml or ppm
  % inhibition of pathogen growth (S. tritici): −0.40%
[1]; 0.16 μg/ml or ppm
  % inhibition of pathogen growth (S. tritici): −0.40%
[1]; 0.8 μg/ml or ppm
  % inhibition of pathogen growth (S. tritici): 0.60%
[1]; 4 μg/ml or ppm
  % inhibition of pathogen growth (S. tritici): −2.60%
[1]; 20 μg/ml or ppm
  % inhibition of pathogen growth (S. tritici): −2.00%
[1]; 100 μg/ml or ppm
  % inhibition of pathogen growth (S. tritici): 104.90%
[1]
  EC50: 72 µg/mL (≈ 315 µM)
[1]; in vitro
  concentration showing efficacy against Septoria tritici: 100 ppm
Fusarium graminearum; 0.0064 μg/ml or ppm
  inhibition of Fusarium graminearum: 0.30%
Fusarium graminearum; 0.032 μg/ml or ppm
  inhibition of Fusarium graminearum: −2.90%
Fusarium graminearum; 0.16 μg/ml or ppm
  inhibition of Fusarium graminearum: −3.90%
Fusarium graminearum; 0.8 μg/ml or ppm
  inhibition of Fusarium graminearum: −1.60%
Fusarium graminearum; 4 μg/ml or ppm
  inhibition of Fusarium graminearum: −3.80%
Fusarium graminearum; 20 μg/ml or ppm
  inhibition of Fusarium graminearum: 18.20%
Fusarium graminearum; 100 μg/ml or ppm
  inhibition of Fusarium graminearum: 53.30%
Fusarium graminearum; 100 μg/ml or ppm, listed as Resveratrol (trans)
  inhibition of Fusarium graminearum: more than 50%
Fusarium graminearum
  EC95 (μg/ml or ppm): >100 μg/ml or ppm
  EC50: 29.5 µg/mL (≈ 129 µM)
Alternaria solani; 0.0064 μg/ml or ppm in water
  inhibition (%) of A. solani growth: 6.20%
Alternaria solani; 0.032 μg/ml or ppm in water
  inhibition (%) of A. solani growth: 13.60%
Alternaria solani; 0.16 μg/ml or ppm in water
  inhibition (%) of A. solani growth: 13.70%
Alternaria solani; 0.8 μg/ml or ppm in water
  inhibition (%) of A. solani growth: 16.10%
Alternaria solani; 4 μg/ml or ppm in water
  inhibition (%) of A. solani growth: 11.20%
Alternaria solani; 20 μg/ml or ppm in water
  inhibition (%) of A. solani growth: 28.70%
Alternaria solani; 100 μg/ml or ppm in water
  inhibition (%) of A. solani growth: 54.7%
Pythium ultimum; 0.0064 μg/ml or ppm
  inhibition of P. ultimum: −8.20%
Pythium ultimum; 0.032 μg/ml or ppm
  inhibition of P. ultimum: −0.30%
Pythium ultimum; 0.16 μg/ml or ppm
  inhibition of P. ultimum: 0.00%
Pythium ultimum; 0.8 μg/ml or ppm
  inhibition of P. ultimum: −1.70%
Pythium ultimum; 4 μg/ml or ppm
  inhibition of P. ultimum: 23.30%
Pythium ultimum; 20 μg/ml or ppm
  inhibition of P. ultimum: 72.40%
Pythium ultimum; 100 μg/ml or ppm
  inhibition of P. ultimum: 100% and 101.30%
Pythium ultimum
  EC50: 8.89 µg/mL (≈ 38.9 µM)
  EC95 (μg/ml or ppm): 73.85 μg/ml or ppm

## C[C@@H]1CC[C@@]2(OC1)O[C@H]1C[C@H]3[C@@H]4CC[C@@H]5C[C@@H](O)CC[C@]5(C)[C@H]4CC[C@]3(C)[C@H]1[C@@H]2C [smilagenin, (25R)-5beta-Spirostan-3beta-ol]
[1]; 0.0064 μg/ml or ppm
  % inhibition of pathogen growth (S. tritici): −3.90%
[1]; 0.032 μg/ml or ppm
  % inhibition of pathogen growth (S. tritici): −2.30%
[1]; 0.16 μg/ml or ppm
  % inhibition of pathogen growth (S. tritici): −1.90%
[1]; 0.8 μg/ml or ppm
  % inhibition of pathogen growth (S. tritici): −9.50%
[1]; 4 μg/ml or ppm
  % inhibition of pathogen growth (S. tritici): 0.00%
[1]; 20 μg/ml or ppm
  % inhibition of pathogen growth (S. tritici): −2.10%
[1]; 100 μg/ml or ppm
  % inhibition of pathogen growth (S. tritici): −0.20%
[1]
  EC50: > 100 µg/mL
Fusarium graminearum; 0.0064 μg/ml or ppm
  inhibition of Fusarium graminearum: 5.00%
Fusarium graminearum; 0.032 μg/ml or ppm
  inhibition of Fusarium graminearum: −2.60%
Fusarium graminearum; 0.16 μg/ml or ppm
  inhibition of Fusarium graminearum: −0.80%
Fusarium graminearum; 0.8 μg/ml or ppm
  inhibition of Fusarium graminearum: 2.40%
Fusarium graminearum; 4 μg/ml or ppm
  inhibition of Fusarium graminearum: 1.50%
Fusarium graminearum; 20 μg/ml or ppm
  inhibition of Fusarium graminearum: −8.70%
Fusarium graminearum; 100 μg/ml or ppm
  inhibition of Fusarium graminearum: 2.00%
Fusarium graminearum
  EC95 (μg/ml or ppm): >100 μg/ml or ppm
  EC50: > 100 µg/mL
Alternaria solani; 0.0064 μg/ml or ppm in water
  inhibition (%) of A. solani growth: 7.9%
Alternaria solani; 0.032 μg/ml or ppm in water
  inhibition (%) of A. solani growth: 10.1%
Alternaria solani; 0.16 μg/ml or ppm in water
  inhibition (%) of A. solani growth: 19.6%
Alternaria solani; 0.8 μg/ml or ppm in water
  inhibition (%) of A. solani growth: 22.6%
Alternaria solani; 4 μg/ml or ppm in water
  inhibition (%) of A. solani growth: 28.0%
Alternaria solani; 20 μg/ml or ppm in water
  inhibition (%) of A. solani growth: 29.3%
Alternaria solani; 40 μg/ml or ppm in water
  inhibition (%) of A. solani growth: 30%
Pythium ultimum; 0.0064 μg/ml or ppm
  inhibition of P. ultimum: −6.70%
Pythium ultimum; 0.032 μg/ml or ppm
  inhibition of P. ultimum: 0.00%
Pythium ultimum; 0.16 μg/ml or ppm
  inhibition of P. ultimum: −0.60%
Pythium ultimum; 0.8 μg/ml or ppm
  inhibition of P. ultimum: 0.10%
Pythium ultimum; 4 μg/ml or ppm
  inhibition of P. ultimum: −3.40%
Pythium ultimum; 20 μg/ml or ppm
  inhibition of P. ultimum: −0.10%
Pythium ultimum; 100 μg/ml or ppm
  inhibition of P. ultimum: 0.00%
Pythium ultimum
  EC50: > 100 µg/mL
  EC95 (μg/ml or ppm): >100 μg/ml or ppm

## boron ethanolamine [Bo 0.49%]
[1]; Concentration 0.05%
  inhibition of Z. tritici, ingredient alone in water: 8.6%
[1]; Concentration 0.50%
  inhibition of Z. tritici, ingredient alone in water: 7.6%
[1]; Concentration 1.00%
  inhibition of Z. tritici, ingredient alone in water: 5.3%
[1]; Concentration 2.00%
  inhibition of Z. tritici, ingredient alone in water: −1.6%
[1]; Concentration 3.00%
  inhibition of Z. tritici, ingredient alone in water: −0.8%
[1]; Concentration 6.00%
  inhibition of Z. tritici, ingredient alone in water: −4.3%
[1]; Concentration 10.00%
  inhibition of Z. tritici, ingredient alone in water: −1.0%
Alternaria solani; A. solani, Table 22, ingredient alone in water
  EC95 (%): >10%
Alternaria solani; Concentration 0.05% mass of the stated aqueous solution
  inhibition of A. solani, ingredient alone in water: 6.5%
Alternaria solani; Concentration 0.50%
  inhibition of A. solani, ingredient alone in water: 0.9%
Alternaria solani; Concentration 1.00%
  inhibition of A. solani, ingredient alone in water: −0.5%
Alternaria solani; Concentration 2.00%
  inhibition of A. solani, ingredient alone in water: −2.6%
Alternaria solani; Concentration 3.00%
  inhibition of A. solani, ingredient alone in water: 2.4%
Alternaria solani; Concentration 6.00%
  inhibition of A. solani, ingredient alone in water: −3.6%
Alternaria solani; Concentration 10.00%
  inhibition of A. solani, ingredient alone in water: −3.3%
Plasmopara viticola; Concentration 0.05%
  in vitro activity against Plasmopara viticola, ingredient alone in water: 17.33%
Plasmopara viticola; Concentration 0.50%
  in vitro activity against Plasmopara viticola, ingredient alone in water: 68.80%
Plasmopara viticola; Concentration 1.00%
  in vitro activity against Plasmopara viticola, ingredient alone in water: 84.60%
Plasmopara viticola; Concentration 2.00%
  in vitro activity against Plasmopara viticola, ingredient alone in water: 90.99%
Plasmopara viticola; Concentration 3.00%
  in vitro activity against Plasmopara viticola, ingredient alone in water: 95.55%
Plasmopara viticola; Concentration 6.00%
  in vitro activity against Plasmopara viticola, ingredient alone in water: 98.96%
Plasmopara viticola; Concentration 10.00%
  in vitro activity against Plasmopara viticola, ingredient alone in water: 99.00%
